Oligonucleotides are written 5' to 3', each unit as a sugar letter and its base; * is a phosphorothioate linkage, no mark a phosphodiester; rarer units and linkages stand in square brackets, end groups in braces. Plain capitals give the bases only. d = 2'-deoxy (DNA)
What follows are substances tested on human CD40 mRNA (assay: Inhibition of CD40 mRNA levels by oligonucleotides (real-time RT-PCR)). Conditions: oligodeoxynucleotides with phosphorothioate backbones throughout; averages from three experiments.
Type: cell-based
Parameters: concentration or dose not given beside the values
Method: When cells reach about 80% confluency, they are treated with oligonucleotide. For cells grown in 96-well plates, wells are washed once with 200 μl Opti-MEM-1 reduced-serum medium (Life Technologies) and then treated with 130 μl of Opti-MEM-1 containing 3.75 μg/ml LIPOFECTIN (Life Technologies) and the desired oligonucleotide at a final concentration of 150 nM. After 4 hours of treatment, the medium was replaced with fresh medium. Cells were harvested 16 hours after oligonucleotide treatment.
Poly(A)+ mRNA was isolated according to Miura et al. (Clin. Chem., 1996, 42, 1758). Briefly, for cells grown on 96-well plates, growth medium was removed from the cells and each well was washed with 200 ul cold PBS. 60 ul lysis buffer (10 mM Tris-HCl, pH 7.6, 1 mM EDTA, 0.5 M NaCl, 0.5% NP-40, 20 mM vanadyl-ribonucleoside complex) was added to each well, the plate was gently agitated and then incubated at room temperature for five minutes. 55 ul of lysate was transferred to Oligo d(T) coated 96 well plates (AGCT Inc., Irvine, Calif.). Plates were incubated for 60 minutes at room temperature, washed 3 times with 200 ul of wash buffer (10 mM Tris-HCl pH 7.6, 1 mM EDTA, 0.3 M NaCl). After the final wash, the plate was blotted on paper towels to remove excess wash buffer and then air-dried for 5 minutes. 60 ul of elution buffer (5 mM Tris-HCl pH 7.6), preheated to 70° C. was added to each well, the plate was incubated on a 90° hot plate for 5 minutes, and the eluate then transferred to a fresh 96 well plate. Cells grown on 100 mm or other standard plates may be treated similarly, using appropriate volumes of all solutions.
Quantitation of CD40 mRNA levels was determined by real-time PCR (RT-PCR) using the ABI PRISM 7700 Sequence Detection System (PE-Applied Biosystems, Foster City, Calif.) according to manufacturer's instructions. This is a closed-tube, non-gel-based, fluorescence detection system which allows high-throughput quantitation of polymerase chain reaction (PCR) products in real-time.
As opposed to standard PCR, in which amplification products are quantitated after the PCR is completed, products in RT-PCR are quantitated as they accumulate. This is accomplished by including in the PCR reaction an oligonucleotide probe that anneals specifically between the forward and reverse PCR primers, and contains two fluorescent dyes. A reporter dye (e.g., JOE or FAM, PE-Applied Biosystems, Foster City, Calif.) is attached to the 5′ end of the probe and a quencher dye (e.g., TAMRA, PE-Applied Biosystems, Foster City, Calif.) is attached to the 3′ end of the probe. When the probe and dyes are intact, reporter dye emission is quenched by the proximity of the 3′ quencher dye. During amplification, annealing of the probe to the target sequence creates a substrate that can be cleaved by the 5′-exonuclease activity of Taq polymerase.
With each cycle, additional reporter dye molecules are cleaved from their respective probes, and the fluorescence intensity is monitored at regular (six-second) intervals by laser optics built into the ABI PRISM 7700 Sequence Detection System. In each assay, a series of parallel reactions containing serial dilutions of mRNA from untreated control samples generates a standard curve that is used to quantitate the percent inhibition after antisense oligonucleotide treatment of test samples.
RT-PCR reagents were obtained from PE-Applied Biosystems, Foster City, Calif. RT-PCR reactions were carried out by adding 25 ul PCR cocktail (1× Taqman buffer A, 5.5 mM MgCl2, 300 uM each of dATP, dCTP and dGTP, 600 uM of dUTP, 100 nM each of forward primer, reverse primer, and probe, 20 U RNAse inhibitor, 1.25 units AmpliTaq Gold, and 12.5 U MuLV reverse transcriptase) to 96 well plates containing 25 ul poly(A) mRNA solution. […]

First: 18623 (DNA dC*dC*dA*dG*dG*dC*dG*dG*dC*dA*dG*dG*dA*dC*dC*dA*dC*dT; antisense) [compound 18623]
Second: 18624 (DNA dG*dA*dC*dC*dA*dG*dG*dC*dG*dG*dC*dA*dG*dG*dA*dC*dC*dA; antisense) [compound 18624]
The “% INHIB. (Inhibition of CD40 mRNA Levels by Phosphorothioate Oligodeoxynucleotides)” value of the first is higher: 30.71% for the first, 28.09% for the second.

First: 18625 (DNA dA*dG*dG*dT*dG*dA*dG*dA*dC*dC*dA*dG*dG*dC*dG*dG*dC*dA; antisense) [compound 18625]
Second: 18626 (DNA dC*dA*dG*dA*dG*dG*dC*dA*dG*dA*dC*dG*dA*dA*dC*dC*dA*dT; antisense) [compound 18626]
The “% INHIB. (Inhibition of CD40 mRNA Levels by Phosphorothioate Oligodeoxynucleotides)” value of the first is higher: 21.89% for the first, 0.00% for the second.

“18627 (DNA dG*dC*dA*dG*dA*dG*dG*dC*dA*dG*dA*dC*dG*dA*dA*dC*dC*dA; antisense) [compound 18627]” and “18628 (DNA dG*dC*dA*dA*dG*dC*dA*dG*dC*dC*dC*dC*dA*dG*dA*dG*dG*dA; antisense) [compound 18628]” are the same in “% INHIB. (Inhibition of CD40 mRNA Levels by Phosphorothioate Oligodeoxynucleotides)” value: 0.00% for the first, 0.00% for the second.

Compared with “18629 (DNA dG*dG*dT*dC*dA*dG*dC*dA*dA*dG*dC*dA*dG*dC*dC*dC*dC*dA; antisense) [compound 18629]”, “18630 (DNA dG*dA*dC*dA*dG*dC*dG*dG*dT*dC*dA*dG*dC*dA*dA*dG*dC*dA; antisense) [compound 18630]” is lower in “% INHIB. (Inhibition of CD40 mRNA Levels by Phosphorothioate Oligodeoxynucleotides)” value: 29.96% for the first, 0.00% for the second.

“18631 (DNA dG*dA*dT*dG*dG*dA*dC*dA*dG*dC*dG*dG*dT*dC*dA*dG*dC*dA; antisense) [compound 18631]” and “18632 (DNA dT*dC*dT*dG*dG*dA*dT*dG*dG*dA*dC*dA*dG*dC*dG*dG*dT*dC; antisense) [compound 18632]” are the same in “% INHIB. (Inhibition of CD40 mRNA Levels by Phosphorothioate Oligodeoxynucleotides)” value: 0.00% for the first, 0.00% for the second.

“18633 (DNA dG*dG*dT*dG*dG*dT*dT*dC*dT*dG*dG*dA*dT*dG*dG*dA*dC*dA; antisense) [compound 18633]” and “18634 (DNA dG*dT*dG*dG*dG*dT*dG*dG*dT*dT*dC*dT*dG*dG*dA*dT*dG*dG; antisense) [compound 18634]” are the same in “% INHIB. (Inhibition of CD40 mRNA Levels by Phosphorothioate Oligodeoxynucleotides)” value: 0.00% for the first, 0.00% for the second.

“18635 (DNA dG*dC*dA*dG*dT*dG*dG*dG*dT*dG*dG*dT*dT*dC*dT*dG*dG*dA; antisense) [compound 18635]” and “18636 (DNA dC*dA*dC*dA*dA*dA*dG*dA*dA*dC*dA*dG*dC*dA*dC*dT*dG*dA; antisense) [compound 18636]” are the same in “% INHIB. (Inhibition of CD40 mRNA Levels by Phosphorothioate Oligodeoxynucleotides)” value: 0.00% for the first, 0.00% for the second.

“18637 (DNA dC*dT*dG*dG*dC*dA*dC*dA*dA*dA*dG*dA*dA*dC*dA*dG*dC*dA; antisense) [compound 18637]” and “18638 (DNA dT*dC*dC*dT*dG*dG*dC*dT*dG*dG*dC*dA*dC*dA*dA*dA*dG*dA; antisense) [compound 18638]” are the same in “% INHIB. (Inhibition of CD40 mRNA Levels by Phosphorothioate Oligodeoxynucleotides)” value: 0.00% for the first, 0.00% for the second.

Compared with “18639 (DNA dC*dT*dG*dT*dC*dC*dT*dG*dG*dC*dT*dG*dG*dC*dA*dC*dA*dA; antisense) [compound 18639]”, “18640 (DNA dC*dT*dC*dA*dC*dC*dA*dG*dT*dT*dT*dC*dT*dG*dT*dC*dC*dT; antisense) [compound 18640]” is lower in “% INHIB. (Inhibition of CD40 mRNA Levels by Phosphorothioate Oligodeoxynucleotides)” value: 4.99% for the first, 0.00% for the second.

“18641 (DNA dT*dC*dA*dC*dT*dC*dA*dC*dC*dA*dG*dT*dT*dT*dC*dT*dG*dT; antisense) [compound 18641]” and “18642 (DNA dG*dT*dG*dC*dA*dG*dT*dC*dA*dC*dT*dC*dA*dC*dC*dA*dG*dT; antisense) [compound 18642]” are the same in “% INHIB. (Inhibition of CD40 mRNA Levels by Phosphorothioate Oligodeoxynucleotides)” value: 0.00% for the first, 0.00% for the second.

First: 18643 (DNA dA*dC*dT*dC*dT*dG*dT*dG*dC*dA*dG*dT*dC*dA*dC*dT*dC*dA; antisense) [compound 18643]
Second: 18644 (DNA dC*dA*dG*dT*dG*dA*dA*dC*dT*dC*dT*dG*dT*dG*dC*dA*dG*dT; antisense) [compound 18644]
The “% INHIB. (Inhibition of CD40 mRNA Levels by Phosphorothioate Oligodeoxynucleotides)” value of the first is lower: 0.00% for the first, 5.30% for the second.

Going from “18645 (DNA dA*dT*dT*dC*dC*dG*dT*dT*dT*dC*dA*dG*dT*dG*dA*dA*dC*dT; antisense) [compound 18645]” to “18646 (DNA dG*dA*dA*dG*dG*dC*dA*dT*dT*dC*dC*dG*dT*dT*dT*dC*dA*dG; antisense) [compound 18646]”, the “% INHIB. (Inhibition of CD40 mRNA Levels by Phosphorothioate Oligodeoxynucleotides)” value rises from 0.00% to 9.00%.

“18647 (DNA dT*dT*dC*dA*dC*dC*dG*dC*dA*dA*dG*dG*dA*dA*dG*dG*dC*dA; antisense) [compound 18647]” and “18648 (DNA dC*dT*dC*dT*dG*dT*dT*dC*dC*dA*dG*dG*dT*dG*dT*dC*dT*dA; antisense) [compound 18648]” are the same in “% INHIB. (Inhibition of CD40 mRNA Levels by Phosphorothioate Oligodeoxynucleotides)” value: 0.00% for the first, 0.00% for the second.

“18649 (DNA dC*dT*dG*dG*dT*dG*dG*dC*dA*dG*dT*dG*dT*dG*dT*dC*dT*dC; antisense) [compound 18649]” and “18650 (DNA dT*dG*dG*dG*dG*dT*dC*dG*dC*dA*dG*dT*dA*dT*dT*dT*dG*dT; antisense) [compound 18650]” are the same in “% INHIB. (Inhibition of CD40 mRNA Levels by Phosphorothioate Oligodeoxynucleotides)” value: 0.00% for the first, 0.00% for the second.

“18651 (DNA dG*dG*dT*dT*dG*dG*dG*dG*dT*dC*dG*dC*dA*dG*dT*dA*dT*dT; antisense) [compound 18651]” and “18652 (DNA dC*dT*dA*dG*dG*dT*dT*dG*dG*dG*dG*dT*dC*dG*dC*dA*dG*dT; antisense) [compound 18652]” are the same in “% INHIB. (Inhibition of CD40 mRNA Levels by Phosphorothioate Oligodeoxynucleotides)” value: 0.00% for the first, 0.00% for the second.

First: 18653 (DNA dG*dG*dT*dG*dC*dC*dC*dT*dT*dC*dT*dG*dC*dT*dG*dG*dA*dC; antisense) [compound 18653]
Second: 18654 (DNA dC*dT*dG*dA*dG*dG*dT*dG*dC*dC*dC*dT*dT*dC*dT*dG*dC*dT; antisense) [compound 18654]
The “% INHIB. (Inhibition of CD40 mRNA Levels by Phosphorothioate Oligodeoxynucleotides)” value of the first is higher: 19.67% for the first, 15.63% for the second.

“18655 (DNA dG*dT*dG*dT*dC*dT*dG*dT*dT*dT*dC*dT*dG*dA*dG*dG*dT*dG; antisense) [compound 18655]” and “18656 (DNA dT*dG*dG*dT*dG*dT*dC*dT*dG*dT*dT*dT*dC*dT*dG*dA*dG*dG; antisense) [compound 18656]” are the same in “% INHIB. (Inhibition of CD40 mRNA Levels by Phosphorothioate Oligodeoxynucleotides)” value: 0.00% for the first, 0.00% for the second.

“18657 (DNA dA*dC*dA*dG*dG*dT*dG*dC*dA*dG*dA*dT*dG*dG*dT*dG*dT*dC; antisense) [compound 18657]” and “18658 (DNA dT*dT*dC*dA*dC*dA*dG*dG*dT*dG*dC*dA*dG*dA*dT*dG*dG*dT; antisense) [compound 18658]” are the same in “% INHIB. (Inhibition of CD40 mRNA Levels by Phosphorothioate Oligodeoxynucleotides)” value: 0.00% for the first, 0.00% for the second.

Compared with “18659 (DNA dG*dT*dG*dC*dC*dA*dG*dC*dC*dT*dT*dC*dT*dT*dC*dA*dC*dA; antisense) [compound 18659]”, “18660 (DNA dT*dA*dC*dA*dG*dT*dG*dC*dC*dA*dG*dC*dC*dT*dT*dC*dT*dT; antisense) [compound 18660]” is higher in “% INHIB. (Inhibition of CD40 mRNA Levels by Phosphorothioate Oligodeoxynucleotides)” value: 5.67% for the first, 7.80% for the second.

Reference: patent publication US20050142581A1, “Microrna as ligands and target molecules” (priority 2003, published 2005)
